Measurements published in ChEMBL document CHEMBL5385944, “Hydrazyl hydroxycoumarins as new potential conquerors towards Pseudomonas aeruginosa” (Bioorg Med Chem Lett, 2024).
In brackets after ≈: the same amount, converted by molar mass. Activity calls are given as the source filed them. No cut-off for these calls is given here.

What was measured:
Erythrocyte = test: Hemolytic activity against human RBC assessed as effect on cell morphology at 32 times MIC measured after 8 hrs by fluorescence microscopic analysis; type: toxicity, cell-based
Cell membrane [1] = test: Disruption of outer membrane integrity in Pseudomonas aeruginosa ATCC 27853 assessed as increase in fluorescence intensity measured after 8 hrs; type: subcellular
Staphylococcus aureus [2] = test: Antibacterial activity against Staphylococcus aureus ATCC 25923 assessed as reduction in bacterial growth by CLSI protocol based method; type: functional
Staphylococcus aureus [3] = test: Antibacterial activity against methicillin resistant Staphylococcus aureus assessed as reduction in bacterial growth by CLSI protocol based method; type: functional
Cell membrane [4] = test: Disruption of outer membrane integrity in Pseudomonas aeruginosa ATCC 27853 assessed as increase in fluorescence intensity at 4 to 8 times MIC; type: subcellular; settings: time <= 80.0 min, TDE = time-dependent effect
Enterococcus faecalis = test: Antibacterial activity against Enterococcus faecalis assessed as reduction in bacterial growth by CLSI protocol based method; type: functional
Klebsiella pneumoniae = test: Antibacterial activity against Klebsiella pneumoniae assessed as reduction in bacterial growth by CLSI protocol based method; type: functional
Staphylococcus aureus [5] = test: Antibacterial activity against Staphylococcus aureus ATCC 29213 assessed as reduction in bacterial growth by CLSI protocol based method; type: functional
Cell membrane [6] = test: Disruption of cell membrane integrity in Pseudomonas aeruginosa ATCC 27853 assessed as increase in protein leakage by Bradford assay; type: subcellular
Pseudomonas aeruginosa [7] = test: Antibacterial activity against Pseudomonas aeruginosa ATCC 10104 assessed as reduction in bacterial growth by CLSI protocol based method; type: functional
Escherichia coli = test: Antibacterial activity against Escherichia coli ATCC 25922 assessed as reduction in bacterial growth by CLSI protocol based method; type: functional
Pseudomonas aeruginosa [8] = test: Antibacterial activity against Pseudomonas aeruginosa ATCC 90027 assessed as reduction in bacterial growth by CLSI protocol based method; type: functional
Cell membrane [9] = test: Disruption of inner membrane integrity in Pseudomonas aeruginosa ATCC 27853 assessed as increase in fluorescence intensity at 4 to 8 times MIC; type: subcellular; settings: time <= 12.0 min, TDE = time-dependent effect
Cell membrane [10] = test: Disruption of inner membrane integrity in Pseudomonas aeruginosa ATCC 27853 assessed as increase in red fluorescence intensity at 8 times MIC measured after 10 to 40 mins by propidium iodide staining based analysis; type: subcellular; settings: time 10-40 min
NCM460 [11] = test: Cytotoxicity against human NCM460 cells assessed as reduction in cell viability at 25 ug/ml measured after 24 hrs by CCK-8 method relative to control; type: toxicity, cell-based; settings: ncm460, 24 h, at 25 µg/mL
Pseudomonas aeruginosa [12] = test: Antibacterial activity against Pseudomonas aeruginosa assessed as reduction in bacterial growth by CLSI protocol based method; type: functional
Cell membrane [13] = test: Disruption of inner membrane integrity in Pseudomonas aeruginosa ATCC 27853 assessed as increase in fluorescence intensity measured after 8 hrs; type: subcellular
Pseudomonas aeruginosa [14] = test: Antibacterial activity against Pseudomonas aeruginosa ATCC 27853 assessed as reduction in bacterial growth by CLSI protocol based method; type: functional
Pseudomonas aeruginosa [15] = test: Induction of drug resistance in Pseudomonas aeruginosa ATCC 27853 measured within 17 passages; type: functional
Acinetobacter baumannii = test: Antibacterial activity against Acinetobacter baumannii assessed as reduction in bacterial growth by CLSI protocol based method; type: functional
Staphylococcus aureus [16] = test: Antibacterial activity against methicillin resistant Staphylococcus aureus 43300 assessed as reduction in bacterial growth by CLSI protocol based method; type: functional
[17] = Hemolytic activity in human RBC assessed as hemolysis at 256 times MIC measured after 8 hrs relative to control; type: toxicity, cell-based, Erythrocyte; settings: red blood cells (erythrocytes), read-out: Activity
Calf thymus DNA = test: Binding affinity to calf thymus DNA at upto 18 micromol/ml by fluorescence spectroscopic method; type: nucleic-acid assay; settings: Bos taurus; dose <= 18.0 µmol/ml
NCM460 [18] = test: Cytotoxicity against human NCM460 cells assessed as effect on cell surface damage at 25 ug/ml measured after 24 hrs by microscope based analysis; type: toxicity; settings: ncm460, 24 h, dose 25 µg/ml

O=C(N/N=C/c1c(O)ccc2ccc(=O)oc12)c1ccncc1
Activity (Erythrocyte): Non-Toxic | Activity (Cell membrane [1]): Dose-Dependent Effect | MIC (Staphylococcus aureus [2]): 16 µg/mL (≈ 51.7 µM) | MIC (Staphylococcus aureus [3]): 4 µg/mL (≈ 12.9 µM) | Activity (Cell membrane [4]): Tde | MIC (Enterococcus faecalis): 8 µg/mL (≈ 25.9 µM) | MIC (Klebsiella pneumoniae): 2 µg/mL (≈ 6.47 µM) | MIC (Staphylococcus aureus [5]): 8 µg/mL (≈ 25.9 µM) | Activity (Cell membrane [6]): Dose-Dependent Effect | MIC (Pseudomonas aeruginosa [7]): 16 µg/mL (≈ 51.7 µM) | MIC (Escherichia coli): 8 µg/mL (≈ 25.9 µM) | MIC (Pseudomonas aeruginosa [8]): 32 µg/mL (≈ 103 µM) | Activity (Cell membrane [9]): Tde | Activity (Cell membrane [10]): Active | Activity (NCM460 [11]): > 80% | MIC (Pseudomonas aeruginosa [12]): 8 µg/mL (≈ 25.9 µM) | Activity (Cell membrane [13]): Dose-Dependent Effect | MIC (Pseudomonas aeruginosa [14]): 0.5 µg/mL (≈ 1.62 µM) | Activity (Pseudomonas aeruginosa [15]): Active | MIC (Acinetobacter baumannii): 1 µg/mL (≈ 3.23 µM) | MIC (Staphylococcus aureus [16]): 1 µg/mL (≈ 3.23 µM) | hemolysis at 8 h, 256 times MIC [17]: < 4% | Activity (Calf thymus DNA): Active | Activity (NCM460 [18]): Non-Toxic
